What all share (assay): inhibition of tumour cell growth, NCI panel, 48 h
Test [1] has as its system UO-31 renal.
In test [2] the test system is HS 578T breast.
For test [3], the system named is SNB-19 CNS.
Test [4] concerns OVCAR-8 ovarian.
For test [5], the system named is EKVX NSCLC.
The test system of test [6] is MCF7 breast.
Test [7] relates to HCT-116 colon.
Test [8] concerns IGROV1 ovarian.
Test [9] deals with HOP-92 NSCLC.
Test [10] relates to HCT-15 colon.
The subject of test [11] is HL-60(TB) leukemia.
For test [12], the system named is NCI-H522 lung.

17 compounds from PubChem BioAssay (NCI) can be followed below.

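Method: 48-hour compound exposure of cells in 96-well plates, five concentrations, linear interpolation of endpoints. Definition used: TGI = concentration required for complete inhibition of growth.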 Bounds are passed on as bounds.

On to `CO/N=C(\C)c1ccc(Nc2nc3ccccc3c3occc23)cc1`, for which the TGI in test [1] turned out to be 35.9 µM; in test [2] it was 30.7 µM; in [3], 31.2 µM; in test [4], 33.9 µM; in test [5] it was 27.5 µM; in test [6] it was 31 µM. Further, the TGI in test [7] was determined as 27.9 µM; in test [8], 31.7 µM; in test [9], 27.6 µM; in [10], 30.5 µM; in test [11], 50.4 µM; in test [12], 24 µM.

Consider `O=C(Nc1ccccc1)c1cc(S(=O)(=O)NC2=NC(c3ccccc3)c3cc(Cl)ccc3N2)c(SSc2cc(Cl)c(C(=O)Nc3ccccc3)cc2S(=O)(=O)NC2=NC(c3ccccc3)c3cc(Cl)ccc3N2)cc1Cl` (centres undefined), for which the TGI in test [1], in [2], in test [3], in test [4], in [5] and in test [6] was more than 100 µM each time. For the same compound, the TGI was more than 100 µM in test [7]; more than 100 µM in test [8]; more than 100 µM in [9]; more than 100 µM in test [10]; more than 53.9 µM in [11]; more than 100 µM in test [12].

As for `N#CC1C(=S)NC(c2ccccc2)=CC12CCCCC2` (centres undefined), the TGI in test [1] is 72.1 µM; in test [2] it was more than 100 µM; in test [3], more than 100 µM; in test [4], more than 100 µM; in [5], 44.6 µM; in [6], 42.4 µM. The TGI stood at 62.1 µM in test [7]; 70.2 µM in test [8]; 55.3 µM in test [9]; 53 µM in test [10]; 52.1 µM in test [11]; 42.2 µM in test [12].

On to `O=c1[nH]nnc2c1sc1ncccc12`, for which the TGI in test [1], in test [2], in test [3], in test [4], in [5] and in test [6] was more than 100 µM each time. The TGI in test [7], in test [8], in [9], in test [10], in [11] and in test [12] was more than 100 µM in each case.

As for `CCn1c(-c2ccccc2)cs/c1=N\C(P(=O)(O)O)P(=O)(O)O`, the TGI in test [1], in test [2], in [3], in [4], in test [5] and in test [6] was more than 100 µM throughout. In addition, the TGI in test [7], in [8], in [9], in test [10], in test [11] and in test [12] was more than 100 µM each time.

As for `CC1(C)OC(C(=O)Nc2cc3c4ccccc4ccc3c3ccccc23)C(C(=O)N2CCCCC2)O1` (centres undefined), the TGI in test [1] is more than 100 µM; in test [2], more than 96.6 µM; in [3], more than 100 µM; in [4] it was more than 100 µM; in test [5] it was more than 100 µM; in [6], more than 29.7 µM. The TGI in [7] was more than 100 µM; in test [8], more than 100 µM; in test [9], more than 100 µM; in test [10] it was more than 100 µM; in test [11] it was more than 100 µM; in test [12] it was more than 28.3 µM.

Take `COc1cccc(C2c3cc4c(cc3OC(N3CCCCC3)C2C)OCO4)c1O` (centres undefined): the TGI in test [1] was 81.1 µM; in [2], more than 26.4 µM; in test [3] it was more than 100 µM; in test [4], more than 36.5 µM; in [5] it was 56.8 µM; in test [6], 57.7 µM. Further, the TGI in [7] was 19.9 µM; in test [8], more than 100 µM; in test [9], 46.8 µM; in test [10], 19.9 µM; in [11], 5.92 µM; in test [12] it was 8.53 µM.

As for `COC(=O)c1ccc(/C=C/c2cc(O)ccc2O)cc1`, the TGI in [1] is 3.67 µM; in test [2] it was more than 100 µM; in [3], more than 100 µM; in [4], 18.4 µM; in [5], 9.66 µM; in test [6] it was 21.8 µM. The TGI in test [7] turned out to be 18.9 µM; in test [8], 9.42 µM; in [9] it was 7.69 µM; in [10], 12.2 µM; in test [11], 1.06 µM; in test [12], 0.356 µM.

For the compound `Cc1c(O)ccc2c(O)c(NC(=O)c3ccc4c(c3)CCC(C)(C)O4)c(=O)oc12`, the TGI in test [1], in test [2], in [3], in test [4], in test [5] and in [6] was more than 100 µM each time. Besides, the TGI in [7], in test [8], in test [9], in test [10], in [11] and in test [12] was more than 100 µM throughout.

Regarding `Cc1c(C)c2c(c(N)c1C#N)C(=O)N(NC(=O)c1ccccc1)C2=O`, the TGI in test [1], in test [2], in [3], in test [4], in test [5] and in [6] was more than 100 µM each time. For the same compound, the TGI in test [7], in test [8], in test [9], in test [10], in test [11] and in [12] was more than 100 µM throughout.

Consider `CO/N=C(\C(=O)OC(=NC1CCCCC1)NC1CCCCC1)c1csc(NC(c2ccccc2)(c2ccccc2)c2ccccc2)n1`, for which the TGI in test [1], in [2], in [3], in test [4], in test [5] and in [6] was more than 10 µM throughout. Further, the TGI in [7], in test [8], in test [9], in test [10], in test [11] and in [12] was more than 10 µM each time.

As for `COC(=O)C1=C(C(=O)OC)N(c2ccc(OC)cc2[N+](=O)[O-])C(c2ccc(C)cc2)=CC1c1ccc(OC)cc1OC` (centres undefined), the TGI in [1] is more than 31.6 µM; in [2], 79.5 µM; in test [3], more than 95.6 µM; in [4], 47.9 µM; in test [5] it was more than 100 µM; in [6], more than 100 µM. The TGI in test [7] is more than 100 µM; in [8], 56.8 µM; in test [9], more than 100 µM; in [10], 57.9 µM; in test [11], more than 44.3 µM; in test [12] it was 57.5 µM.

As for `CC(C)(C)OC(=O)NC1CCCCC1NC(=O)C(=O)NC1CCCCC1NC(=O)OC(C)(C)C` (centres undefined), the TGI in test [1] was more than 100 µM; in test [2], 57.1 µM; in test [3] it was more than 100 µM; in [4], more than 100 µM; in test [5], more than 100 µM; in [6], more than 100 µM. Besides, the TGI in test [7] was more than 100 µM; in test [8] it was more than 100 µM; in [9], 45 µM; in test [10], more than 100 µM; in [11] it was more than 100 µM; in test [12], more than 100 µM.

For `CN(C)c1ccc(/C=c2/c3ccccc3n3c2c2c([n+]3C)CCCC2)cc1`, the TGI in [1] is 6.5 µM; in test [2] it was 7.21 µM; in test [3], 6.68 µM; in test [4], 2.49 µM; in test [5], 0.353 µM; in [6], 0.321 µM. For the same compound, the TGI came to 0.913 µM in test [7]; 1.82 µM in test [8]; 0.141 µM in [9]; 5.56 µM in [10]; 0.363 µM in test [11]; 0.687 µM in test [12].

As for `COC[C@@H](N=CC(C)(C)C)C(C)C`, the TGI in test [1], in test [2], in test [3], in test [4], in test [5] and in test [6] was more than 100 µM throughout. Moreover, the TGI in test [7], in test [8], in test [9], in test [10], in test [11] and in [12] was more than 100 µM throughout.

Take `O=C1C=CC(=O)c2c1ccc1c3ccccc3n(CCCCCn3c4ccccc4c4ccc5c(c43)C(=O)C=CC5=O)c21`: the TGI is 16.4 µM in test [1]; more than 78.7 µM in test [2]; more than 100 µM in test [3]; 46.9 µM in [4]; more than 94.3 µM in [5]; 43.3 µM in [6]. The TGI in test [7] was found to be 25.7 µM; in test [8] it was 20.6 µM; in test [9], 35.6 µM; in test [10], 36.2 µM; in test [11] it was 3.23 µM; in [12], 4.37 µM.

Take `CC1(C)/C(=N\NC(N)=O)C2CCC1C2` (centres undefined): the TGI in test [1], in test [2], in test [3], in test [4], in [5] and in test [6] was more than 100 µM in each case. For the same compound, the TGI in test [7], in [8], in test [9], in [10], in test [11] and in test [12] was more than 100 µM in each case.
